# Assays:
# Assay in all cases: relative viability (nuclei count vs DMSO), 5 days (fraction); higher = more cells survive
# ChaGo-K-1 = test system: ChaGo-K-1
# Procedure, shortened: (§1)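 Values are medians from duplicate plates. Each reflects relative viability, defined as the nuclei count of treated wells over that of vehicle wells. Lung cancer cell lines in 1536-well plates were pin-tool dosed one day after seeding with one drug alone or with a fixed anchor-drug dose plus five library-drug doses (not always all listed) in √10 steps, then fixed, stained and imaged at 4× after 5 days.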
# EKVX = test system: EKVX
# Procedure, shortened: as §1
# EMC-BAC-2 = test system: EMC-BAC-2
# Procedure, shortened: as §1
# EPLC-272H = test system: EPLC-272H
# Procedure, shortened: as §1
# HCC-78 = test system: HCC-78
# Procedure, shortened: as §1
# HCC-827 = test system: HCC-827
# Procedure, shortened: as §1
# LCLC-103H = test system: LCLC-103H
# Procedure, shortened: as §1
# LK-2 = test system: LK-2
# Procedure, shortened: as §1
# LU99A = test system: LU99A
# Procedure, shortened: as §1
# NCI-H1563 = test system: NCI-H1563
# Procedure, shortened: as §1
# NCI-H1666 = test system: NCI-H1666
# Procedure, shortened: as §1
# NCI-H1975 = test system: NCI-H1975
# Procedure, shortened: as §1
# NCI-H2126 = test system: NCI-H2126
# Procedure, shortened: as §1
# NCI-H2342 = test system: NCI-H2342
# Procedure, shortened: as §1
# NCI-H23 = test system: NCI-H23
# Procedure, shortened: as §1
# NCI-H2405 = test system: NCI-H2405
# Procedure, shortened: as §1
# NCI-H322M = test system: NCI-H322M
# Procedure, shortened: as §1
# PC-14 = test system: PC-14
# Procedure, shortened: as §1
# RERF-LC-KJ = test system: RERF-LC-KJ
# Procedure, shortened: as §1
# SK-LU-1 = test system: SK-LU-1
# Procedure, shortened: as §1
# SW 1573 = test system: SW 1573
# Procedure, shortened: as §1
# SW 900 = test system: SW 900
# Procedure, shortened: as §1
smiles,measurement,setting,value
Cc1sc2c(c1C)C(c1ccc(Cl)cc1)=N[C@@H](CC(=O)OC(C)(C)C)c1nnc(C)n1-2 [JQ1] + Cc1nc(Nc2ncc(C(=O)Nc3c(C)cccc3Cl)s2)cc(N2CCN(CCO)CC2)n1 [Dasatinib] (partner 0.075 µM),relative viability,ChaGo-K-1; first compound 0.04 µM,0.663
same,relative viability,ChaGo-K-1; first compound 0.1265 µM,0.462
same,relative viability,ChaGo-K-1; first compound 0.4 µM,0.44
same,relative viability,ChaGo-K-1; first compound 1.265 µM,0.485
same,relative viability,ChaGo-K-1; first compound 4 µM,0.397
same,relative viability,EKVX; first compound 0.04 µM,0.517
same,relative viability,EKVX; first compound 0.4 µM,0.473
same,relative viability,EKVX; first compound 1.265 µM,0.45
same,relative viability,EKVX; first compound 4 µM,0.417
same,relative viability,EMC-BAC-2; first compound 0.04 µM,0.33
same,relative viability,EMC-BAC-2; first compound 0.1265 µM,0.235
same,relative viability,EMC-BAC-2; first compound 0.4 µM,0.254
same,relative viability,EMC-BAC-2; first compound 1.265 µM,0.205
same,relative viability,EMC-BAC-2; first compound 4 µM,0.371
same,relative viability,EPLC-272H; first compound 0.04 µM,0.352
same,relative viability,EPLC-272H; first compound 0.1265 µM,0.382
same,relative viability,EPLC-272H; first compound 0.4 µM,0.358
same,relative viability,EPLC-272H; first compound 1.265 µM,0.175
same,relative viability,EPLC-272H; first compound 4 µM,0.204
same,relative viability,HCC-78; first compound 0.04 µM,0.364
same,relative viability,HCC-78; first compound 0.1265 µM,0.419
same,relative viability,HCC-78; first compound 0.4 µM,0.366
same,relative viability,HCC-78; first compound 1.265 µM,0.319
same,relative viability,HCC-78; first compound 4 µM,0.248
same,relative viability,HCC-827; first compound 0.04 µM,0.371
same,relative viability,HCC-827; first compound 0.4 µM,0.227
same,relative viability,HCC-827; first compound 1.265 µM,0.438
same,relative viability,HCC-827; first compound 4 µM,0.421
same,relative viability,LCLC-103H; first compound 0.04 µM,0.433
same,relative viability,LCLC-103H; first compound 0.1265 µM,0.418
same,relative viability,LCLC-103H; first compound 0.4 µM,0.464
same,relative viability,LCLC-103H; first compound 1.265 µM,0.327
same,relative viability,LCLC-103H; first compound 4 µM,0.266
same,relative viability,LK-2; first compound 0.04 µM,0.254
same,relative viability,LK-2; first compound 0.1265 µM,0.156
same,relative viability,LK-2; first compound 0.4 µM,0.162
same,relative viability,LK-2; first compound 1.265 µM,0.108
same,relative viability,LK-2; first compound 4 µM,0.112
same,relative viability,LU99A; first compound 0.04 µM,0.551
same,relative viability,LU99A; first compound 0.1265 µM,0.378
same,relative viability,LU99A; first compound 0.4 µM,0.603
same,relative viability,LU99A; first compound 1.265 µM,0.207
same,relative viability,LU99A; first compound 4 µM,0.206
same,relative viability,NCI-H1563; first compound 0.04 µM,0.446
same,relative viability,NCI-H1563; first compound 0.1265 µM,0.405
same,relative viability,NCI-H1563; first compound 0.4 µM,0.533
same,relative viability,NCI-H1563; first compound 1.265 µM,0.443
same,relative viability,NCI-H1563; first compound 4 µM,0.362
same,relative viability,NCI-H1666; first compound 0.04 µM,0.791
same,relative viability,NCI-H1666; first compound 0.1265 µM,0.593
same,relative viability,NCI-H1666; first compound 0.4 µM,0.587
same,relative viability,NCI-H1666; first compound 1.265 µM,0.554
same,relative viability,NCI-H1666; first compound 4 µM,0.504
same,relative viability,NCI-H1975; first compound 0.04 µM,0.414
same,relative viability,NCI-H1975; first compound 0.1265 µM,0.316
same,relative viability,NCI-H1975; first compound 0.4 µM,0.305
same,relative viability,NCI-H1975; first compound 1.265 µM,0.227
same,relative viability,NCI-H1975; first compound 4 µM,0.241
same,relative viability,NCI-H2126; first compound 0.04 µM,0.651
same,relative viability,NCI-H2126; first compound 0.1265 µM,0.575
same,relative viability,NCI-H2126; first compound 0.4 µM,0.431
same,relative viability,NCI-H2126; first compound 1.265 µM,0.433
same,relative viability,NCI-H2126; first compound 4 µM,0.35
same,relative viability,NCI-H2342; first compound 0.04 µM,0.315
same,relative viability,NCI-H2342; first compound 0.1265 µM,0.304
same,relative viability,NCI-H2342; first compound 0.4 µM,0.328
same,relative viability,NCI-H2342; first compound 1.265 µM,0.286
same,relative viability,NCI-H2342; first compound 4 µM,0.299
same,relative viability,NCI-H23; first compound 0.04 µM,0.666
same,relative viability,NCI-H23; first compound 0.1265 µM,0.656
same,relative viability,NCI-H23; first compound 0.4 µM,0.579
same,relative viability,NCI-H23; first compound 1.265 µM,0.275
same,relative viability,NCI-H23; first compound 4 µM,0.344
same,relative viability,NCI-H2405; first compound 0.04 µM,0.19
same,relative viability,NCI-H2405; first compound 0.1265 µM,0.195
same,relative viability,NCI-H2405; first compound 0.4 µM,0.19
same,relative viability,NCI-H2405; first compound 1.265 µM,0.169
same,relative viability,NCI-H2405; first compound 4 µM,0.147
same,relative viability,NCI-H322M; first compound 0.04 µM,0.234
same,relative viability,NCI-H322M; first compound 0.1265 µM,0.245
same,relative viability,NCI-H322M; first compound 0.4 µM,0.24
same,relative viability,NCI-H322M; first compound 1.265 µM,0.225
same,relative viability,NCI-H322M; first compound 4 µM,0.239
same,relative viability,PC-14; first compound 0.04 µM,0.283
same,relative viability,PC-14; first compound 0.1265 µM,0.187
same,relative viability,PC-14; first compound 0.4 µM,0.119
same,relative viability,PC-14; first compound 1.265 µM,0.14
same,relative viability,PC-14; first compound 4 µM,0.05
same,relative viability,RERF-LC-KJ; first compound 0.04 µM,0.763
same,relative viability,RERF-LC-KJ; first compound 0.1265 µM,0.646
same,relative viability,RERF-LC-KJ; first compound 0.4 µM,0.72
same,relative viability,RERF-LC-KJ; first compound 1.265 µM,0.576
same,relative viability,RERF-LC-KJ; first compound 4 µM,0.332
same,relative viability,SK-LU-1; first compound 0.04 µM,0.185
same,relative viability,SK-LU-1; first compound 0.1265 µM,0.18
same,relative viability,SK-LU-1; first compound 0.4 µM,0.182
same,relative viability,SK-LU-1; first compound 1.265 µM,0.124
same,relative viability,SK-LU-1; first compound 4 µM,0.11
same,relative viability,SW 1573; first compound 0.04 µM,0.486
same,relative viability,SW 1573; first compound 0.1265 µM,0.447
same,relative viability,SW 1573; first compound 0.4 µM,0.31
same,relative viability,SW 1573; first compound 1.265 µM,0.218
same,relative viability,SW 1573; first compound 4 µM,0.23
same,relative viability,SW 900; first compound 0.04 µM,0.521
same,relative viability,SW 900; first compound 0.1265 µM,0.456
same,relative viability,SW 900; first compound 0.4 µM,0.298
same,relative viability,SW 900; first compound 1.265 µM,0.193
same,relative viability,SW 900; first compound 4 µM,0.135

# — the supplement of paper PMC10307832
